Results published in ChEMBL document CHEMBL5723587, “Data for DCP probe BI-113823” (2024).
The source made the active and inactive calls. No cut-off for these calls is given here.

Key:
[1] = molecular target: B1 bradykinin receptor (Oryctolagus cuniculus, UniProt P48748); test: Radioligand binding assay (displacement of kallidin, rabbit BDKRB1 ) at 10 µM ( Non-specific binding is estimated in the presence of 10 µM Des-Arg9- (Leu8)-Bradykinin. Membranes are filtered and washed, the filters are then counted to determine [3H]Kallidin[des-Arg10, Leu9] specifically bound.); set-up: compound concentration 10 uM
[2] = molecular target: D(1A) dopamine receptor (Homo sapiens) (UniProt P21728); test: Activity against D1/HU in the Eurofins SafetyScreen44 (BI) by Radioactive Assay; conditions: Compound concentration 10.0 uM
[3] = organism: Rattus norvegicus; test: Activity against CA+/DHPSI/RA in the Eurofins SafetyScreen44 (BI) by Radioactive Assay; conditions: Compound concentration 10.0 uM
[4] = molecular target: Voltage-dependent N-type calcium channel subunit alpha-1B (Rattus norvegicus) (UniProt Q02294); test: Activity against CA+/N/RA in the Eurofins SafetyScreen44 (BI) by Radioactive Assay; conditions: Compound concentration 10.0 uM
[5] = molecular target: 5-hydroxytryptamine receptor 1A (Homo sapiens) (UniProt P08908); test: Activity against 5HT1A/HU in the Eurofins SafetyScreen44 (BI) by Radioactive Assay; conditions: Compound concentration 10.0 uM
[6] = molecular target: T1, B1 bradykinin receptor (Homo sapiens, UniProt P46663); test: Radioligand binding assay (displacement of kallidin, hBDKRB1 ) at 10 µM ( Non-specific binding is estimated in the presence of 10 µM Des-Arg9- (Leu8)-Bradykinin. Membranes are filtered and washed, the filters are then counted to determine [3H]Kallidin[des-Arg10, Leu9] specifically bound.); set-up: compound concentration 10 uM
T1 sequence (P46663 whole entry): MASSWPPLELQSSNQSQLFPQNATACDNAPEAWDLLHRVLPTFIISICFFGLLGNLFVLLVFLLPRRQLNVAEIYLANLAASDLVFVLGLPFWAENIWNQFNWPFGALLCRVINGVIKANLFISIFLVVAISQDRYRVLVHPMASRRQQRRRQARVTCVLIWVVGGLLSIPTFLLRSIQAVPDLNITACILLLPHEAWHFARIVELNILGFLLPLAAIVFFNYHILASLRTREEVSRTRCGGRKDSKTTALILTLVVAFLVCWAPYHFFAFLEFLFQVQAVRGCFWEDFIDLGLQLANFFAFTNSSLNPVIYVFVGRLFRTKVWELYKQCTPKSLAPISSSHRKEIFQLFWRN

[7] = molecular target: Sodium-dependent noradrenaline transporter (Homo sapiens) (UniProt P23975); test: Activity against NETRANS/H in the Eurofins SafetyScreen44 (BI) by Radioactive Assay; conditions: Compound concentration 10.0 uM
Sequence of Sodium-dependent noradrenaline transporter (Homo sapiens) (P23975 whole entry): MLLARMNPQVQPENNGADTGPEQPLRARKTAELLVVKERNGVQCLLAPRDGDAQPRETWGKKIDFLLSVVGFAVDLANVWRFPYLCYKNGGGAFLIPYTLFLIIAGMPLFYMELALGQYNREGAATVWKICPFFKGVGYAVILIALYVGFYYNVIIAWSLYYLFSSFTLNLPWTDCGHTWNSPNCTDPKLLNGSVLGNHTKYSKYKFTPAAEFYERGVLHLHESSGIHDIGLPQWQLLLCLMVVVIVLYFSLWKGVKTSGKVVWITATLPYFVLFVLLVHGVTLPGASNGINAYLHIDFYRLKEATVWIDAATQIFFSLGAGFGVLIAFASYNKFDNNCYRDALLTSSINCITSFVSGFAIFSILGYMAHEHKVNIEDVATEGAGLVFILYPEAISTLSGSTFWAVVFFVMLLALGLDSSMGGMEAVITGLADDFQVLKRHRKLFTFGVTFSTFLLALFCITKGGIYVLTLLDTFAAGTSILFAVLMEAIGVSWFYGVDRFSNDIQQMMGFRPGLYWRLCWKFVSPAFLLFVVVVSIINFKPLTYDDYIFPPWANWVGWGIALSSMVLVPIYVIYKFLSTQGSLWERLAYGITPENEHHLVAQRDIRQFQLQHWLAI

[8] = molecular target: Alpha-1B adrenergic receptor (Rattus norvegicus) (UniProt P15823); test: Activity against ALPHA1B/R in the Eurofins SafetyScreen44 (BI) by Radioactive Assay; conditions: Compound concentration 10.0 uM
Sequence of Alpha-1B adrenergic receptor (Rattus norvegicus) (P15823 whole entry, looked up): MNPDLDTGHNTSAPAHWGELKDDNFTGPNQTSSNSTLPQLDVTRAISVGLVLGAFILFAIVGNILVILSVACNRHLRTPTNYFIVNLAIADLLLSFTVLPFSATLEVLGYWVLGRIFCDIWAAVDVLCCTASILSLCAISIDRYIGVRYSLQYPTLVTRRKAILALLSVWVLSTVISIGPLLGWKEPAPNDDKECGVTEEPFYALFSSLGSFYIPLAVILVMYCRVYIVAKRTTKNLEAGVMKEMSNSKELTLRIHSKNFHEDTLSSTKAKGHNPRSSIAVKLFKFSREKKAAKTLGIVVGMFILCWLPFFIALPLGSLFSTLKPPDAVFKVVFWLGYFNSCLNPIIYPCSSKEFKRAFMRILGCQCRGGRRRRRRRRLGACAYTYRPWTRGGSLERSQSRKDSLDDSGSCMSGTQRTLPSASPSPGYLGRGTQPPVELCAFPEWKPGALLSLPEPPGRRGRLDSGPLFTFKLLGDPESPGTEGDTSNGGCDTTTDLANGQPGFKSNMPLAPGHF

[9] = molecular target: Neuropeptide Y receptor type 2 (Homo sapiens) (UniProt P49146); test: Activity against Y2/HU in the Eurofins SafetyScreen44 (BI) by Radioactive Assay; conditions: Compound concentration 10.0 uM
[10] = molecular target: Nicotinic acetylcholine receptor alpha-1/beta-1 (Homo sapiens) (UniProt P02708+P11230); test: Activity against NACH_BS_N/H in the Eurofins SafetyScreen44 (BI) by Radioactive Assay; assay type: protein-complex assay; conditions: Compound concentration 10.0 uM
[11] = molecular target: Prostaglandin E2 receptor EP4 subtype (Homo sapiens) (UniProt P35408); test: Activity against EP4/H in the Eurofins SafetyScreen44 (BI) by Radioactive Assay; conditions: Compound concentration 10.0 uM
Sequence of Prostaglandin E2 receptor EP4 subtype (Homo sapiens) (P35408 whole entry): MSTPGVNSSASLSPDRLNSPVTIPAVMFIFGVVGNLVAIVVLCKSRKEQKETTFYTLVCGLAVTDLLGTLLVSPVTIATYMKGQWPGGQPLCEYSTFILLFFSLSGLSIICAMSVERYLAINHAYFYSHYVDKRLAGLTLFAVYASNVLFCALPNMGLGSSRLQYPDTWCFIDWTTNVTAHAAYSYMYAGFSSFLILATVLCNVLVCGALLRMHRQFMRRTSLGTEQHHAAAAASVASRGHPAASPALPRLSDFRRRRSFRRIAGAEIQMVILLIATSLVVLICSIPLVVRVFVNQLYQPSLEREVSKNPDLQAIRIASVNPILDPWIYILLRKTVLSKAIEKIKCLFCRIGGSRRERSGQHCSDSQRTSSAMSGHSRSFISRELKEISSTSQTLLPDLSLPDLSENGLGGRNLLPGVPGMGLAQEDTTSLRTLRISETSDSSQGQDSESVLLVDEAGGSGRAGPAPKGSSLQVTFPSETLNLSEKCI

[12] = molecular target: Beta-1 adrenergic receptor (Homo sapiens) (UniProt P08588); test: Activity against BETA1/HU in the Eurofins SafetyScreen44 (BI) by Radioactive Assay; conditions: Compound concentration 10.0 uM
Sequence of Beta-1 adrenergic receptor (Homo sapiens) (P08588 whole entry, looked up): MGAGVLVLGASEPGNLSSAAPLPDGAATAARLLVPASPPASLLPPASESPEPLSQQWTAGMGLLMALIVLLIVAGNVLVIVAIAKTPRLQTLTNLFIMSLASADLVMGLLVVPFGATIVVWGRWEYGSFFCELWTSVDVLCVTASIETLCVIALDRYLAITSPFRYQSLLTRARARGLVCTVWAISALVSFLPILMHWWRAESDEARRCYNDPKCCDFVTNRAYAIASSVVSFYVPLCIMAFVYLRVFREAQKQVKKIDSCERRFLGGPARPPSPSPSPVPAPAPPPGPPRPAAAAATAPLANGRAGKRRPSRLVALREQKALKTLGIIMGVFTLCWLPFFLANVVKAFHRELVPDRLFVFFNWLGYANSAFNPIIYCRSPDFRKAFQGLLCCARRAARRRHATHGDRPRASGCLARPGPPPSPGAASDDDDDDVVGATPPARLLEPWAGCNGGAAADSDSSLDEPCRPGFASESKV

[13] = molecular target: Glucocorticoid receptor (Homo sapiens) (UniProt P04150); test: Activity against GLUCOCORTICO in the Eurofins SafetyScreen44 (BI) by Radioactive Assay; conditions: Compound concentration 10.0 uM
Sequence of Glucocorticoid receptor (Homo sapiens) (P04150 whole entry): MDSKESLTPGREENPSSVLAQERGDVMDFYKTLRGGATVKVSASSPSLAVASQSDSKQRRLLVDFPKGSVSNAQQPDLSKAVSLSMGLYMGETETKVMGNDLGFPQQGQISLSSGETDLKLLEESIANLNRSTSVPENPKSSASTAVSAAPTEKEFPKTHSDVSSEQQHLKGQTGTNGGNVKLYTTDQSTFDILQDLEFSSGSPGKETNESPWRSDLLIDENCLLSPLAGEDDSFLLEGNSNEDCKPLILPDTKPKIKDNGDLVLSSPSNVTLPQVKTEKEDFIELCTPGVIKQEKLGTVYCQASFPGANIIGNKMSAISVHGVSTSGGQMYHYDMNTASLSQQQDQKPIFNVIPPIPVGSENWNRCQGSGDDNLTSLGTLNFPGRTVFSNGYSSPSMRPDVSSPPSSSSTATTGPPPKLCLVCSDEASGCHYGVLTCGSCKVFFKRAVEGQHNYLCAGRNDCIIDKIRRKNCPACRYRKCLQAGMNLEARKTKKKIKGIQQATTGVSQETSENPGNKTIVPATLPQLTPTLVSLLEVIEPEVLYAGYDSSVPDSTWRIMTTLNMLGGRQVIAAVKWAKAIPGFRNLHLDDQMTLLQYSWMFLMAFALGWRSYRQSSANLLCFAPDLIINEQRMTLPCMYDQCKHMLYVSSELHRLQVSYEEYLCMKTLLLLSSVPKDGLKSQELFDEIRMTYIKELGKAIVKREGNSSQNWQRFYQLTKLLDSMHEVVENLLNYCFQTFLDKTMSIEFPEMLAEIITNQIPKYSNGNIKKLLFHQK

[14] = molecular target: Gamma-aminobutyric acid receptor subunit alpha-1 (Rattus norvegicus) (UniProt P62813); test: Activity against GABAA MUSCIMOL CENT in the Eurofins SafetyScreen44 (BI) by Scintillation counting; conditions: Compound concentration 10.0 uM
Sequence of Gamma-aminobutyric acid receptor subunit alpha-1 (Rattus norvegicus) (P62813 whole entry): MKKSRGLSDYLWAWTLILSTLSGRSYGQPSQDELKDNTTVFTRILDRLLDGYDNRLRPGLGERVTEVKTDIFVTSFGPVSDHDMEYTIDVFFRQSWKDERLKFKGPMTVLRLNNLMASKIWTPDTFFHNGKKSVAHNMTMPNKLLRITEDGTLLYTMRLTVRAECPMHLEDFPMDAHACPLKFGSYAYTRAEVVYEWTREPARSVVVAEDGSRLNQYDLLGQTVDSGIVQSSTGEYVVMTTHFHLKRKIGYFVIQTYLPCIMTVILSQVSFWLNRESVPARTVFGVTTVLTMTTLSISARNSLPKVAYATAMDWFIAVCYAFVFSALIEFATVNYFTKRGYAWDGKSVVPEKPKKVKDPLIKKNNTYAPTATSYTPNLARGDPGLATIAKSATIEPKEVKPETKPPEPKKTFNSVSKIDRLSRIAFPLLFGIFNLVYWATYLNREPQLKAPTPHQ

[15] = molecular target: hERG (KCNH2) (Homo sapiens, UniProt Q12809); test: Activity against K+/HERG in the Eurofins SafetyScreen44 (BI) by Radioactive Assay; conditions: compound concentration 10 uM, read-out: % Ctrl
[16] = molecular target: Pyroglutamylated RF-amide peptide receptor (Homo sapiens) (UniProt Q96P65); test: Activity against GPR103 in the Eurofins SafetyScreen44 (BI) by Radioactive Assay; conditions: Compound concentration 10.0 uM
Sequence of Pyroglutamylated RF-amide peptide receptor (Homo sapiens) (Q96P65 whole entry): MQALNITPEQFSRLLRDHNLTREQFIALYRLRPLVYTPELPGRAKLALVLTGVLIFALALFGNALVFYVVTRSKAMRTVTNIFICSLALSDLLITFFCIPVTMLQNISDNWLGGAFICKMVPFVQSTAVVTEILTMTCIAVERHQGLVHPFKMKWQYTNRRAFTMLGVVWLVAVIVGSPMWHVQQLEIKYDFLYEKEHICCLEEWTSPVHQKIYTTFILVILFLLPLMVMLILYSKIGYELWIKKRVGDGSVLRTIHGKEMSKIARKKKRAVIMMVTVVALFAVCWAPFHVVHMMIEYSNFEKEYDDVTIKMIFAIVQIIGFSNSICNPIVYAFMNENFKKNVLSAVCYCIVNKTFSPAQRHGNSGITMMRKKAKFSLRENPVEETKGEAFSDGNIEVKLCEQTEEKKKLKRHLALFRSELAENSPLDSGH

[17] = molecular target: Muscarinic acetylcholine receptor M2 (Homo sapiens) (UniProt P08172); test: Activity against M2/HU in the Eurofins SafetyScreen44 (BI) by Radioactive Assay; conditions: Compound concentration 10.0 uM
Sequence of Muscarinic acetylcholine receptor M2 (Homo sapiens) (P08172 whole entry): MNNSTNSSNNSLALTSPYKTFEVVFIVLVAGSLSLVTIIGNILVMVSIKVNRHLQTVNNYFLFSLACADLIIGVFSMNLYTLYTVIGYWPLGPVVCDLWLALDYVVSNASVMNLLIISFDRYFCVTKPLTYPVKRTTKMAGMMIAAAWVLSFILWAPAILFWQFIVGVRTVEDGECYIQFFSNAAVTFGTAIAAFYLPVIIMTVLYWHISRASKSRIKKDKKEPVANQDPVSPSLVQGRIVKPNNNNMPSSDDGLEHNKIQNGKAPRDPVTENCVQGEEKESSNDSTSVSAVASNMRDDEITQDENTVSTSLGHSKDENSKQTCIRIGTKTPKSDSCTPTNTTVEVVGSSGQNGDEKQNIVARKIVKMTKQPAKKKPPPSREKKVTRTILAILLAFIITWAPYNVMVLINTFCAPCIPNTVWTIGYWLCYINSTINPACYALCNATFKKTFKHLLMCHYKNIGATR

[18] = molecular target: Histamine H2 receptor (Homo sapiens) (UniProt P25021); test: Activity against H2/H in the Eurofins SafetyScreen44 (BI) by Radioactive Assay; conditions: Compound concentration 10.0 uM
Sequence of Histamine H2 receptor (Homo sapiens) (P25021 whole entry): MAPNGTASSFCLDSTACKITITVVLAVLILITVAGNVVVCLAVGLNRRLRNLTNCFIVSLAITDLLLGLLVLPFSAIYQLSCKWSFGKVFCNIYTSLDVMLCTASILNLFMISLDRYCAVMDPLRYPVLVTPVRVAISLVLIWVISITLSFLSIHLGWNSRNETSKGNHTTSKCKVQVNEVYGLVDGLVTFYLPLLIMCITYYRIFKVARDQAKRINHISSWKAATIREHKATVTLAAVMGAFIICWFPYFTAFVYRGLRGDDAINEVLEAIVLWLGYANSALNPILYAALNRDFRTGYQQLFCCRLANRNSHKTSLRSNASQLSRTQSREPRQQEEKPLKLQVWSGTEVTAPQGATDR

[19] = molecular target: Platelet-activating factor receptor (Homo sapiens) (UniProt P25105); test: Activity against PAF/H in the Eurofins SafetyScreen44 (BI) by Radioactive Assay; conditions: Compound concentration 10.0 uM
[20] = molecular target: B2 bradykinin receptor (Homo sapiens) (UniProt P30411); test: Activity against B2/HU in the Eurofins SafetyScreen44 (BI) by Radioactive Assay; conditions: Compound concentration 10.0 uM
[21] = molecular target: Delta-type opioid receptor (Homo sapiens) (UniProt P41143); test: Activity against DELTA/HU in the Eurofins SafetyScreen44 (BI) by Radioactive Assay; conditions: Compound concentration 10.0 uM
[22] = molecular target: Gamma-aminobutyric acid receptor subunit alpha-1 (Rattus norvegicus) (UniProt P62813); test: Activity against GABAACENTR in the Eurofins SafetyScreen44 (BI) by Radioactive Assay; conditions: Compound concentration 10.0 uM
[23] = molecular target: B1 bradykinin receptor (Rattus norvegicus, UniProt P97583); test: Radioligand binding assay (displacement of kallidin, rat BDKRB1 ) at 10 µM ( Non-specific binding is estimated in the presence of 10 µM Des-Arg9- (Leu8)-Bradykinin. Membranes are filtered and washed, the filters are then counted to determine [3H]Kallidin[des-Arg10, Leu9] specifically bound.); set-up: compound concentration 10 uM
[24] = molecular target: Androgen receptor (Rattus norvegicus) (UniProt P15207); test: Activity against TESTOST/RA in the Eurofins SafetyScreen44 (BI) by Others; conditions: Compound concentration 10.0 uM
[25] = molecular target: Mu-type opioid receptor (Homo sapiens) (UniProt P35372); test: Activity against MU/HU in the Eurofins SafetyScreen44 (BI) by Radioactive Assay; conditions: Compound concentration 10.0 uM
Sequence of Mu-type opioid receptor (Homo sapiens) (P35372 whole entry): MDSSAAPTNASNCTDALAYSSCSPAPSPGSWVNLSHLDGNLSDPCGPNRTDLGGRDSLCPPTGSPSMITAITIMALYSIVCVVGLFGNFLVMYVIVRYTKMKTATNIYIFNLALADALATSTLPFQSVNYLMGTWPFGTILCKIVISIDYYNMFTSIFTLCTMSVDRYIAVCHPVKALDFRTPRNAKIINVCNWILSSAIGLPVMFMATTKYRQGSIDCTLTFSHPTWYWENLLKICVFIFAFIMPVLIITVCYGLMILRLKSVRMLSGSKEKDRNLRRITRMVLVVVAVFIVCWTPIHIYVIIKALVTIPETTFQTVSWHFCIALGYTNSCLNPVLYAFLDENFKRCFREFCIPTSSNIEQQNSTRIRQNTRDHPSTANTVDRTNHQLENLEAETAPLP

[26] = molecular target: Endothelin receptor type B (Homo sapiens) (UniProt P24530); test: Activity against ETB/HUM in the Eurofins SafetyScreen44 (BI) by Radioactive Assay; conditions: Compound concentration 10.0 uM
[27] = Activity against I2/CENTR/R in the Eurofins SafetyScreen44 (BI) by Radioactive Assay; conditions: Rattus norvegicus; Compound concentration 10.0 uM
[28] = molecular target: T1, B1 bradykinin receptor; test: Measurement of intracellular calcium in HEK-cells expressing hBDKRB1 at up to 1 µM ( The compound antagonizes the effects of the specific B1 agonist [Lys-des-Arg9 ]-Bradykinin (10 nM) in a concentration-dependent manner.); assay type: functional, cell-based; set-up: compound concentration < 1 uM
[29] = molecular target: 5-hydroxytryptamine receptor 3A (Homo sapiens) (UniProt P46098); test: Activity against 5HT3/HU in the Eurofins SafetyScreen44 (BI) by Others; conditions: Compound concentration 10.0 uM

For `COc1cc(C)c(S(=O)(=O)N(C)CCOCC(=O)N(C)[C@H]2CCC[C@@H](N3CCN(C)CC3)C2)c(C)c1`, the Ki [1] was 15.3 nM (active), the residual activity [2] was 97% and the residual activity [3] was 94%. For the same compound, the residual activity [4] was 100%, the residual activity [5] was 99% and the Ki [6] was 5.3 nM (active). The residual activity [7] was 114%, the residual activity [8] was 96% and the residual activity [9] was 111%. For the same compound, the residual activity [10] was 96%, the residual activity [11] was 93% and the residual activity [12] was 105%. For the same compound, the residual activity [13] was 103%, the residual activity [14] was 101% and the activity at 10 µM [15] was 70% (not active). It also gave a residual activity [16] of 105%, a residual activity [17] of 61% and a residual activity [18] of 93%. For the same compound, the residual activity [19] was 87%, the residual activity [20] was 108% and the residual activity [21] was 86%. The residual activity [22] was 96%, the Ki [23] was 13.3 nM (active) and the residual activity [24] was 96%. For the same compound, the residual activity [25] was 91%, the residual activity [26] was 104% and the residual activity [27] was 60%. The IC50 [28] was 7 nM (active) and the residual activity [29] was 91%.
